Data reported in article PMC12858405, “Ideal efficacy photoswitching for chromocontrol of TRPC4/5 channel functions in live tissues” (Nature Chemical Biology, 2026).

Target: T1, TRPC5-V579I-SYFP2 (Homo sapiens, UniProt Q9UL62, V579I)
T1 construct: expressed in transfected cells; host or cells: HEK 293 (ATCC CRL 1573), transiently transfected (jetPRIME)
T1 sequence (Q9UL62 1-973 V579I): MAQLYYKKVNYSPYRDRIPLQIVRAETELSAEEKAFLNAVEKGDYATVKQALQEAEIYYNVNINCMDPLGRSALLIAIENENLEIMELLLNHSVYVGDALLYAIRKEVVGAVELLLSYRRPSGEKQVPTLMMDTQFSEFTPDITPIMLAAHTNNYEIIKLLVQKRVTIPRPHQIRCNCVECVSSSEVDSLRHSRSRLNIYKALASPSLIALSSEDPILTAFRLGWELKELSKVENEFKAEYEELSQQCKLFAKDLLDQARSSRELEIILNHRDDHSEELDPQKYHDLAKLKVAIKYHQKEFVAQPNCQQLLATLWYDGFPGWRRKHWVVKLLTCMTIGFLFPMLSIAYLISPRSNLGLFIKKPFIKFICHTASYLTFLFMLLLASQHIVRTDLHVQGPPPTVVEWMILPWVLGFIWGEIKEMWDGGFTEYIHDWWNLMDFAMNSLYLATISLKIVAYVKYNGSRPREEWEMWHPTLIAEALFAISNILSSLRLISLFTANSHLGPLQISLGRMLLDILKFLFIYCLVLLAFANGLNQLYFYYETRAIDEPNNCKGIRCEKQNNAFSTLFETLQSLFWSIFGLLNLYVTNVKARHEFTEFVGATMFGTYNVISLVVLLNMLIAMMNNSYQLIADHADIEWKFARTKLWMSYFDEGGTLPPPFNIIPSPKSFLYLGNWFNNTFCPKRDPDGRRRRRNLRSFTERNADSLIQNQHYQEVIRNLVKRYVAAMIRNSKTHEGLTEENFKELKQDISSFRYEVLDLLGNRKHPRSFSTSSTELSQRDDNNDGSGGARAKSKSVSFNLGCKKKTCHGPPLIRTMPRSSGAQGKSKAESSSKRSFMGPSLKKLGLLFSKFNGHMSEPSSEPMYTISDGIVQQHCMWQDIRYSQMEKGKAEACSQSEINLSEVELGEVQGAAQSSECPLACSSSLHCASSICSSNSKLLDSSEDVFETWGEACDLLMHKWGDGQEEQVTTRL
Assay: Fura-2 [Ca2+]i recordings, HEK 293 transiently expressing TRPC5-V579I-SYFP2
Type: cell-based
Conditions: 10-1000 nM; compound plate illuminated at 380 nm; EA 100 nM as maximum
Description: Müller, Niemeyer, et al., Schaefer & Thorn-Seshold 2025: Ideal Efficacy Photoswitching of TRPC4/5 in Tissue […]
1.4.3 Note on TRPC4 / TRPC5 Sequence Alignment
The key contact residues of interest in the ligand binding site are highly conserved between TRPC4 and TRPC5. The relevant sequences in the site are: […]
1.4.4 Differences and selectivity between TRPC5 and TRPC4?
AM237 activates TRPC5 but inhibits EA mediated activation of TRPC4; Pico145 inhibits both TRPC4 and TRPC5. Thus, somewhat naively, it could be argued that it is the para substituent here which affects both the efficacy mode and the selectivity for TRPC4 and/or TRPC5.
Intriguingly, Z-AzPico activates TRPC4 and TRPC5 with low nanomolar potency whereas Z-AzHC only activates TRPC5 but not TRPC4. Therefore, the meta substituent is now responsible for the selectivity in this case. The cryo-EM structures of Pico145 and HC-070 in complex with TRPC5 indicated the same binding site but the southern phenyl ring bearing the OCF3/Cl group is flipped and pointing in opposite directions.
Z isomers, i.e. Z-buried vs. E-projected. Additionally, both E-AzPico and E-AzHC inhibit EA […]
Intracellular calcium ([Ca2+]i) was measured using the ratiometric Ca2+ dye Fura-2. […]

Cn1c(=O)n(CCCO)c(=O)c2c1nc(Oc1ccc(Cl)c(OC(F)(F)F)c1)n2Cc1ccc(Cl)cc1 [AM237, reference compound]
Effect on [Ca2+]i, TRPC5V579I: partial agonists

Cn1c(=O)n(CCCO)c(=O)c2c1nc(Oc1ccc(/N=N\c3ccccc3)c(Cl)c1)n2Cc1ccc(Cl)cc1 [Z*-AzHC]
Effect on [Ca2+]i, TRPC5V579I: partial agonists
